Assay results as given in article PMC8219695 (Nature Communications, 2021).
Several values for one entry are separate records, joined by “and”; a condition that tells them apart may be missing. Identical values can stand only once.

Columns and labels:
mMOR [1] = target: T1, mMOR (Mus musculus, UniProt P42866); experiment: CAMYEL BRET antagonism assay at mMOR (inhibition of DAMGO); assay type: cell-based; conditions: source data of Fig 8a and Table 5, listed as C11-Cl-7OH (23);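 note: BRET signal rises as cAMP falls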
T1 construct: signal peptide (heterologous, not specified) (N); expressed in transfected cells; pcDNA3.1(+) construct made in house

hKOR = hKOR (Homo sapiens, UniProt P41145); experiment: CAMYEL BRET cAMP agonist assay at hKOR; assay type: cell-based; conditions: individual replicates, Supplementary Figure 8A source data
hMOR = target: T2, hMOR (Homo sapiens, UniProt P35372); experiment: cell-based
T2 construct: expressed in transfected cells; plasmid a gift from Dr. Nevin Lambert

mMOR [2] = target: T1, mMOR; experiment: CAMYEL BRET cAMP agonist assay at mMOR; assay type: cell-based; conditions: mMOR; for cAMP %: single replicates, source data Fig 6b, listed as C11-Cl-7OH (23)
mKOR = target: T3, mKOR (Mus musculus, UniProt P33534); experiment: [125I]BNtxA radioligand competition binding, mouse KOR; conditions: mean ± SEM, n = 3; [125I]BNtxA; read-out: Ki ± SEM mKOR
T3 construct: expressed in transfected cells; membranes

rKOR = target: T4, rKOR (Rattus norvegicus, UniProt P34975); experiment: CAMYEL BRET cAMP agonist assay at rKOR; assay type: cell-based; conditions: individual replicates, Supplementary Figure 8B source data
T4 construct: expressed in transfected cells

## CC[C@@H]1CN2CC[C@@]3(O)C(=Nc4cc(Cl)cc(OC)c43)[C@@H]2C[C@@H]1/C(=C\OC)C(=O)OC [11-Cl-7OH (23), 11-Cl-7OH]
mMOR [1]; Log[drug] (M) -6
  Antagonist activity at mMOR, raw signal (single replicate values): 0.06527 and 0.08059 and 0.08038 and 0.07596 and 0.06694 and 0.07308 and 0.08894 and 0.05009 and 0.07552
mMOR [1]; Log[drug] (M) -7
  Antagonist activity at mMOR, raw signal (single replicate values): 0.171 and 0.1656 and 0.1405 and 0.1722 and 0.164 and 0.1548 and 0.1502 and 0.1538 and 0.167
mMOR [1]; Log[drug] (M) -8
  Antagonist activity at mMOR, raw signal (single replicate values): 0.2056 and 0.1941 and 0.1944 and 0.1853 and 0.1938 and 0.208 and 0.1628 and 0.1712 and 0.1714
mMOR [1]; Log[drug] (M) -9
  Antagonist activity at mMOR, raw signal (single replicate values): 0.1978 and 0.1907 and 0.2036 and 0.185 and 0.2114 and 0.2034 and 0.1755 and 0.1681 and 0.1723
mMOR [1]; Log[drug] (M) -10
  Antagonist activity at mMOR, raw signal (single replicate values): 0.2063 and 0.2294 and 0.2076 and 0.2027 and 0.2013 and 0.2029 and 0.1793 and 0.1909 and 0.175
mMOR [1]; Log[drug] (M) -11
  Antagonist activity at mMOR, raw signal (single replicate values): 0.1963 and 0.2104 and 0.2086 and 0.1881 and 0.2054 and 0.206 and 0.1763 and 0.1632 and 0.1788
hKOR; Log [drug](M) -5
  Agonist activity of 7OH analogs at hKOR: 9.026 and -5.895 and 4.248 and 11.9704 and 8.484 and 2.501 and -3.893 and 6.434 and -2.541
hKOR; Log [drug](M) -6
  Agonist activity of 7OH analogs at hKOR: -2.414 and -2.835 and -8.98 and 12.2163 and 1.484 and -5.782 and -0.574 and -6.895 and -9.704
hKOR; Log [drug](M) -7
  Agonist activity of 7OH analogs at hKOR: -11.1771 and -3.626 and -0.5883 and -1.763 and -7.04 and -2.623 and -4.522 and -13.931 and 0.01935
hKOR; Log [drug](M) -8
  Agonist activity of 7OH analogs at hKOR: 2.99 and -4.136 and 1.141 and -3.765 and -7.282 and -9.586 and -2.533 and -2.303 and 3.7063
hKOR; Log [drug](M) -9
  Agonist activity of 7OH analogs at hKOR: -6.592 and -11.4451 and 3.708 and 3.417 and -6.737 and -11.3529 and 17.5943 and 11.6069 and 9.781
hKOR; Log [drug](M) -10
  Agonist activity of 7OH analogs at hKOR: -2.387 and -3.9069 and 3.049 and -10.4557 and -1.189 and 2.17 and 4.733 and 0.5961 and 8.633
hKOR; Log [drug](M) -11
  Agonist activity of 7OH analogs at hKOR: 8.282 and -7.987 and 6.107 and 1.524 and -1.1871 and -6.8877 and 2.73 and 5.876 and 10.03
hKOR; Log [drug](M) -13
  Agonist activity of 7OH analogs at hKOR: 4.46 and -4.721 and 0.2615 and 1.311 and -2.987 and 1.677 and 6.874 and 5.681 and 9.762
hMOR
  IC50: 0.92 µM
mMOR [2]; Log[drug] (M) -5
  cAMP %: 6.435% and 6.384% and 16.5545% and 12.4027% and 11.5958% and 9.171% and 11.6377% and 17.8045% and 15.1324%
mMOR [2]; Log[drug] (M) -6
  cAMP %: 18.6614% and 4.689% and 11.9914% and 8.341% and 7.121% and 7.194% and 11.7839% and 2.54% and 3.967%
mMOR [2]; Log[drug] (M) -7
  cAMP %: 11.7629% and -2.4507% and 10.3244% and 12.5872% and 11.439% and 4.6796% and 1.65% and 1.082% and 0.9258%
mMOR [2]; Log[drug] (M) -8
  cAMP %: -5.129% and 6.21% and -1.081% and 7.275% and 2.298% and 9.574% and 9.25% and -4.751% and 0.6222%
mMOR [2]; Log[drug] (M) -9
  cAMP %: 2.051% and -8.733% and 10.4525% and -1.843% and 3.825% and 12.7464% and 9.611% and 1.736% and 14.7967%
mMOR [2]; Log[drug] (M) -10
  cAMP %: -1.957% and 12.894% and -4.791% and 0.07219% and 0.3304% and -0.4025% and -1.324% and -2.101% and 5.511%
mMOR [2]; Log[drug] (M) -11
  cAMP %: 22.2971% and -9.038% and -0.05376% and 20.8701% and 7.205% and 16.4135% and 3.836% and -1.905% and 3.566%
mMOR [2]; Log[drug] (M) -13, cAMP inhibition as % of DAMGO
  cAMP %: -0.5682% and 13.1006% and 15.0829% and 7.325% and 4.046% and 5.291% and 0.9156% and 1.033% and -1.949%
mMOR [2]; maximal inhibitory effect on cAMP levels relative to DAMGO
  Emax: 13%
mMOR [2]; n = 3, read-out: EC50
  EC50: 0.841 µM
mKOR
  Ki: 0.0307 ± 0.0114 µM
rKOR; Log [drug](M) -5
  Agonist activity of 7OH analogs at rKOR: 7.778 and 10.9917 and 16.9019 and -6.188 and -1.8256 and 8.442 and 6.4374 and 16.0399 and 7.566
rKOR; Log [drug](M) -6
  Agonist activity of 7OH analogs at rKOR: 8.066 and 4.412 and -3.244 and 6.747 and -4.426 and -2.321 and 10.6533 and 7.813 and 3.403
rKOR; Log [drug](M) -7
  Agonist activity of 7OH analogs at rKOR: 11.5045 and -0.8261 and -10.6783 and 7.768 and -4.174 and 5.42 and 2.7074 and 2.952 and 8.478
rKOR; Log [drug](M) -8
  Agonist activity of 7OH analogs at rKOR: 0.508 and -0.7332 and 4.656 and 8.713 and 2.1745 and 4.589 and 10.047 and 0.1108 and 9.912
rKOR; Log [drug](M) -9
  Agonist activity of 7OH analogs at rKOR: 6.738 and 3.9698 and 11.9053 and 20.8557 and 20.3344 and 22.4492 and 3.132 and -0.673 and 0.03935
rKOR; Log [drug](M) -10
  Agonist activity of 7OH analogs at rKOR: 7.8399 and 7.154 and 27.1145 and 5.225 and 8.778 and 7.65 and 0.6993 and -2.781 and 2.082
rKOR; Log [drug](M) -11
  Agonist activity of 7OH analogs at rKOR: 20.1355 and 7.2112 and 5.419 and 15.9158 and 14.9773 and 3.289 and 5.031 and 2.5469 and 3.562
rKOR; Log [drug](M) -13
  Agonist activity of 7OH analogs at rKOR: 2.6438 and 19.3085 and 15.1998 and 15.6888 and 12.292 and 1.7 and 4.489 and 13.3107 and 4.029
